Test results published in patent publication US20260102340A1, “Therapeutic Formulation” (1000739373 Ontario Ltd., priority 2022, published 2026).

Assay: Stability of CBD formulation in HFA 134a (residual)
Format: physicochemical
Conditions: for Residual (% of 5° C. data): Valve Up
Description: The stability of a cannabidiol (CBD) formulation in HFA 134a was evaluated over a 6-month period.
The formulation consisted of 3.57% (w/w) CBD, 15% (w/w) ethanol, and HFA 134a. The formulation was packaged in Presspart™ Plasma 14 mL canisters with metering valves 1908 (Aptar™). The canisters were stored in the valve-up orientation for 6 months at 5° C., 25° C., or 40° C. The residual formulation was measured at 1 month and 6 months.

**Q.** Which “Stability of CBD-HFA formulations” value (5° C., 25° C. and 40° C.) does the source give for `C=C(C)[C@@H]1CCC(C)=C[C@H]1c1c(O)cc(CCCCC)cc1O` [CBD, cannabidiol] here?
**A.** Its value is “stable”.

**Q.** What about the “Residual (% of 5° C. data)” value (Batch OZ210527/DAL/G1, 1 month (n = 3), 25° C.) of the same molecule?
**A.** The value was 100.3 % of 5 °C data.

**Q.** And the “Residual (% of 5° C. data)” value (Batch OZ210527/DAL/G1, 1 month (n = 3), 40° C.)?
**A.** Its value is 98.5 % of 5 °C data.

**Q.** What about the “Residual (% of 5° C. data)” value (Batch OZ210527/DAL/G1, 3.57% CBD, 15% ethanol, HFA 134a, 1 month (n = 3), 5° C.) of the same molecule?
**A.** Its value is 100.00 % of 5 °C data.

**Q.** And the “Residual (% of 5° C. data)” value (Batch OZ210527/DAL/G1, 6 month (n = 4), 25° C.)?
**A.** The value was 93.3 % of 5 °C data.

**Q.** And the “Residual (% of 5° C. data)” value (Batch OZ210527/DAL/H1, 1 month (n = 3), 25° C.)?
**A.** Its value is 100.2 % of 5 °C data.

**Q.** What about the “Residual (% of 5° C. data)” value (Batch OZ210527/DAL/H1, 1 month (n = 3), 40° C.) of the same molecule?
**A.** The value was 98.1 % of 5 °C data.

**Q.** And the “Residual (% of 5° C. data)” value (Batch OZ210527/DAL/H1, 3.57% CBD, 15% ethanol, HFA 134a, 1 month (n = 3), 5° C.)?
**A.** The value was 100.0 % of 5 °C data.

**Q.** And the “Residual (% of 5° C. data)” value (Batch OZ210527/DAL/H1, 6 month (n = 4), 25° C.)?
**A.** The value was 93.5 % of 5 °C data.
